Assay results from ChEMBL document CHEMBL5727311, “Heterobicyclic N-aminophenyl-amides as inhibitors of histone deacetylase” (2019).

Target: Histone deacetylase 2 (Homo sapiens, UniProt Q92769)
Test: Reporter Displacement Assay: HDAC2 containing a C-terminal HIS-Tag (Proteros) and fluorescently-labeled anti-HIS-antibody are diluted in one vial in assay buffer 50 mM Tris, pH 8.0, 1 mM DTT, 150 mM NaCl, and 0.01% Tween20. Components are pre-incubated for 30 min, then a small volume of reporter probe (Proteros) is added from a highly concentrated stock and incubation is continued for another 30 min. Final concentrations after adding the reporter probe amount to 20 nM HDAC2, 4 nM antibody, and 180 nM probe.

Sequence of Histone deacetylase 2 (Q92769 whole entry): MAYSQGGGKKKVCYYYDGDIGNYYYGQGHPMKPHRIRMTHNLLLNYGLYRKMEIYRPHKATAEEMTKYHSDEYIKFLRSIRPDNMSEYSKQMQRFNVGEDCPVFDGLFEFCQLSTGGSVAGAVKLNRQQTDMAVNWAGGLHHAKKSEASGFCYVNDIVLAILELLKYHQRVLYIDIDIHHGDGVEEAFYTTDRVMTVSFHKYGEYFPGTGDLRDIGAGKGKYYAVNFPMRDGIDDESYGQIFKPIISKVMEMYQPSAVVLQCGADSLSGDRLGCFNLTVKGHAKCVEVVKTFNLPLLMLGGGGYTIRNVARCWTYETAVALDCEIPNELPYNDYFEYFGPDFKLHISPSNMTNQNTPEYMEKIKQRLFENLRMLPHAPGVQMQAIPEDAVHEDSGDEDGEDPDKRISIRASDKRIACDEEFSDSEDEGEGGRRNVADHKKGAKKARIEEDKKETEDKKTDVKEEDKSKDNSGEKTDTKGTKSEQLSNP

- Kd: < 100 nM
SMILES: Nc1ccc(-c2ccncc2)cc1NC(=O)N1Cc2cncnc2C1
